Tests used:
BCR-TRK2 BaF3 cells = assay: Splenomegaly mouse model, BCR-TRK2 BaF3 cells; assay type: in vivo
Experimental: (§1) BaF3 cells are engineered with any of BCR-FMS, BCR-TRK1 or BCR-TRK2 to assess in vivo inhibitory effects of Fms, TrkA or TrkB inhibition, respectively. BaF3 cells are maintained in growth media (RPMI containing 10% FBS, 1% PenStrep, 1% NEAA, and 1% L-Glutamine, supplemented with 5% murine IL-3 and 1 mg/mL G418). Four days prior to start, 2×10^6 cells are inoculated into a T150 vented flask using the growth media and incubated at 37° C. in 5% CO2 for three days. One day prior to start, cells are collected by centrifugation and are suspended in growth media without IL-3. On the day of cell implant, the cells are collected by centrifugation, rinsed 3×20 mL with RPMI, then are suspended in 5.4 mL of media and counted, then adjusted with additional RPMI as needed to give 5×10^7 cells/mL. On day 1, female nu/nu mice at 5-6 weeks of age are injected intravenously with BaF3 cells injected injecting 0.1 mL (5×10^6) cells in the tail vein (mice without cell injected are included as control group). Compound stocks in dimethylsulfoxide are stored at room temperature protected from light. Stocks are diluted prior to dosing, diluting 22 μL of compound stock into 858 μL of diluent (or 50 μL into 1950 μL) to provide vehicle of 1.0% Polysorbate 80, 0.5% hydroxypropyl methyl cellulose, with final dimethylsulfoxide at 2.5% in all dosing suspensions and vehicle control. Dosing suspension is prepared prior to use, mixing by inversion and sonication in a water bath to make a uniform suspension. On days 10-18, mice are treated with vehicle only or the desired level of compound in vehicle, ˜0.2 mL per 25 gm mouse, once a day by oral gavage, or in some instances, twice per day. On day 18, mice are administered a final dose and two hours later a plasma sample is taken. At four hours following the final dose, mice are sacrificed, an additional plasma sample is collected and mouse spleens are removed and weighed. The average spleen weight of vehicle control group mice is compared to the average spleen weight of the test compound mice. Percent spleen growth inhibition is calculated as 100×[(spleen weight vehicle control-spleen weight test compound)/spleen weight vehicle control]. In some instances, the compounds were not tested in all of the assays as indicated by NA in the table below.

BCR-FMS BaF3 cells = assay: Splenomegaly mouse model, BCR-FMS BaF3 cells; assay type: in vivo
Experimental: as §1

TrkC kinase = TrkC kinase (Homo sapiens, UniProt Q16288); assay: TrkC kinase biochemical activity assay (similar to TrkA assay); details: read-out: Biochemical Inhibition IC50 TrkC
Chain of TrkC kinase (Q16288 32-839): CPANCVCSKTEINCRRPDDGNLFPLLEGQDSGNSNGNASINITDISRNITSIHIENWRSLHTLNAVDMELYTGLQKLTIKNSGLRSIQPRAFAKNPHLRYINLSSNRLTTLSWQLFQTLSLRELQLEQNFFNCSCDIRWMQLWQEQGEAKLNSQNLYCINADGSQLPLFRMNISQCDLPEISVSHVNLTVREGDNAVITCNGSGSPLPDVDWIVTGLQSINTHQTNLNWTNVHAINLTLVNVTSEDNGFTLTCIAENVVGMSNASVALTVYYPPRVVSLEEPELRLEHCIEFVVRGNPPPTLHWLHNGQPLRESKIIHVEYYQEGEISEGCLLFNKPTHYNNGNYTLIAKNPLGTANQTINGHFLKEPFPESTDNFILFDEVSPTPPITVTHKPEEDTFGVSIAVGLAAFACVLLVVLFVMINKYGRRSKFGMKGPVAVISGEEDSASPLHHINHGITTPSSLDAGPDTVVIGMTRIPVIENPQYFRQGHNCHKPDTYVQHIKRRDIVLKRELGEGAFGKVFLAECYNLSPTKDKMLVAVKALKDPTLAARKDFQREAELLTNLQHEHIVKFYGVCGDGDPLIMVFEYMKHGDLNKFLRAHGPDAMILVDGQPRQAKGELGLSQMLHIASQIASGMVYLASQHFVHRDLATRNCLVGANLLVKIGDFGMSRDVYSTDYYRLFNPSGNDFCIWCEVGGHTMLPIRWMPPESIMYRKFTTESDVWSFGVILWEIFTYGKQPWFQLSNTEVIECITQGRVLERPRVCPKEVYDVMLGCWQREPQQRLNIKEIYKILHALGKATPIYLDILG
Experimental: In one assay the biochemical activity IC50 values are determined with respect to inhibition of TrkA kinase activity, where inhibition of phosphorylation of a peptide substrate is measured as a function of compound concentration. Compounds to be tested, dissolved in DMSO (1 μL), are added to a white 384-well plate (Costar #3705). Working stocks of TrkA kinase (UBI), biotin-(E4Y)10 substrate (Upstate Biotech, Cat#12-440), and ATP (Sigma, Cat#A-3377) are prepared in 25 mM Hepes pH 7.5, 10 mM MnCl2, 1 mM DTT, 0.01% BSA, and 0.01% Tween-20. All components are added to the 384-well plate for a final concentration of 1 ng/well TrkA, 30 nM biotin-(E4Y)10 and 100 μM ATP in a volume of 20 μL. Each sample is at 5% DMSO. The plate is shaken for 1 minute at 1200 rpm, spun for 1 minute at 1000 rpm, then incubated for 40 minutes at room temperature. Just before use, working stocks of donor and acceptor beads from the AlphaScreen PY20 Detection Kit (PerkinElmer, Cat#676601M) are prepared in 25 mM Hepes pH 7.5, 100 mM EDTA. 0.01% BSA. Donor Beads solution (Streptavidin beads) is added (5 μL) to each well to final bead concentration of 10 μg/mL. The plate is incubated at room temperature for 20 minutes. Acceptor Beads solution (PY20 coated beads) are then added to each well (5 μL) to a final concentration of bead at 10 μg/mL. The plates are incubated at room temperature for 60 minutes. Fluorescence signal is recorded on the Envision reader. Phosphorylated substrate results in binding of the PY20 antibody and association of the donor and acceptor beads such that signal correlates with kinase activity. The signal vs. compound concentration is used to determine the IC50. Similar assays are used for TrkB and Trk C kinase.

BCR-TRK1 BaF3 cells = assay: Splenomegaly mouse model, BCR-TRK1 BaF3 cells; assay type: in vivo
Experimental: as §1, with “The average spleen weight of vehicle control group mice is compared to the average spleen weight of the test compound mice.” left out, “In some instances, the compounds were not tested in all of the assays as indicated by NA in the table below.” left out

[1] = dosed once per day at 10 mg per kg

SMILES | % spleen growth inhibition, TrkB (BCR-TRK2 BaF3 cells; [1]) [%] | % spleen growth inhibition, Fms (BCR-FMS BaF3 cells; [1]) [%] | IC50 (TrkC kinase) [nM] | % spleen growth inhibition, TrkA (BCR-TRK1 BaF3 cells; dosed at 30 mg/kg) [%] | % spleen growth inhibition, TrkA (BCR-TRK1 BaF3 cells; [1]) [%] | % spleen growth inhibition, TrkB (BCR-TRK2 BaF3 cells; dosed at 30 mg/kg) [%] | % spleen growth inhibition, Fms (BCR-FMS BaF3 cells; dosed at 30 mg/kg) [%]
Cc1ccc(Nc2ccc(Cc3c[nH]c4ncnc(C5CC5)c34)c(F)n2)cn1 [Compound P-4030, [5-(4-Cyclopropyl-7H-pyrrolo[2,3-d]pyrimidin-5-ylmethyl)-6-fluoro-pyridin-2-yl]-(6-methyl-pyridin-3-yl)-amine] | 50 | 58 | – | – | – | – | –
CCOc1ccc(Nc2ccc(Cc3c[nH]c4ncnc(C)c34)c(F)n2)cn1 [Compound P-4006, (6-Ethoxy-pyridin-3-yl)-[6-fluoro-5-(4-methyl-7H-pyrrolo[2,3-d]pyrimidin-5-ylmethyl)-pyridin-2-yl]-amine] | 21 | 55 | – | – | – | – | –
CCc1ccc(Nc2ccc(Cc3c[nH]c4ncnc(OC)c34)c(F)n2)cn1 [Compound P-4007, (6-Ethyl-pyridin-3-yl)-[6-fluoro-5-(4-methoxy-7H-pyrrolo[2,3-d]pyrimidin-5-ylmethyl)-pyridin-2-yl]-amine] | 19 | 28 | – | – | – | – | –
COc1ccc(Nc2ccc(Cc3c[nH]c4ncc(C)cc34)c(F)n2)cn1 [Compound P-3019, [6-fluoro-5-(5-methyl-1H-pyrrolo[2,3-b]pyridin-3-ylmethyl)-pyridin-2-yl]-(6-methoxy-pyridin-3-yl)-amine] | 14 | 40 | < 100 | – | – | – | –
COc1ncnc2[nH]cc(Cc3ccc(Nc4ccc(C5CC5)nc4)nc3F)c12 [Compound P-4004, (6-Cyclopropyl-pyridin-3-yl)-[6-fluoro-5-(4-methoxy-7H-pyrrolo[2,3-d]pyrimidin-5-ylmethyl)-pyridin-2-yl]-amine] | 41 | 36 | – | 40 | 16 | 91 | 70
CCc1ccc(Nc2ccc(Cc3c[nH]c4ncnc(C5CC5)c34)c(F)n2)cn1 [Compound P-4028, [5-(4-Cyclopropyl-7H-pyrrolo[2,3-d]pyrimidin-5-ylmethyl)-6-fluoro-pyridin-2-yl]-(6-ethyl-pyridin-3-yl)-amine] | 88 | 86 | – | – | – | – | –
CCOc1ccc(Nc2ncc(Cc3c[nH]c4ncc(C)cc34)cn2)cn1 [Compound P-3027, (6-Ethoxy-pyridin-3-yl)-[5-(5-methyl-1H-pyrrolo[2,3-b]pyridin-3-ylmethyl)-pyrimidin-2-yl]-amine] | 2 | 42 | < 100 | – | – | – | –
CCOc1ccc(Nc2ccc(Cc3c[nH]c4ncnc(OC)c34)c(F)n2)cn1 [Compound P-4005, (6-Ethoxy-pyridin-3-yl)-[6-fluoro-5-(4-methoxy-7H-pyrrolo[2,3-d]pyrimidin-5-ylmethyl)-pyridin-2-yl]-amine] | 35 | 65 | – | – | 25 | – | –
COc1ccc(Nc2ccc(C(=O)c3c[nH]c4ncnc(C5CC5)c34)c(F)n2)cn1 [Compound P-4022, (4-cyclopropyl-7H-pyrrolo[2,3-d]pyrimidin-5-yl)-[2-fluoro-6-(6-methoxy-pyridin-3-ylamino)-pyridin-3-yl]-methanone] | 33 | 42 | – | – | – | – | –
COc1ccc(Nc2ccc(Cc3c[nH]c4ncnc(C)c34)c(F)n2)cn1 [Compound P-4002, [6-Fluoro-5-(4-methyl-7H-pyrrolo[2,3-d]pyrimidin-5-ylmethyl)-pyridin-2-yl]-(6-methoxy-pyridin-3-yl)-amine] | – | – | < 1000 | – | – | – | –
